Laboratory results as given in paper PMC3510655 (Chemical science (Royal Society of Chemistry : 2010), 2013).

Biological target: T1, quinone reductase 2 (QR2) (Homo sapiens, UniProt P16083)
T1 sequence (P16083 1-231): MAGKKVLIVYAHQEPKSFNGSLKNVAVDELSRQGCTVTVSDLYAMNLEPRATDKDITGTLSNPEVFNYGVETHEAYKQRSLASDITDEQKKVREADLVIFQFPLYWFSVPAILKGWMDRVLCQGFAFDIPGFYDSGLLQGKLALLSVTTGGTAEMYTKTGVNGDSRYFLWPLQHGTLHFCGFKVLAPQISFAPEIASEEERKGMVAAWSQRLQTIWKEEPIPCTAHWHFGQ
Assay: QR2 inhibition assay using human recombinant protein
Format: biochemical
Settings: authors' assay system

Substance	IC50 against QR2
Ammosamide E [compound 1]	nearly equipotent to 4
Ammosamide H [compound 10]	irreproducible results
